{"source": "patent US20100203114A1", "about": "“MICELLE ENCAPSULATION OF THERAPEUTIC AGENTS” (WARF - Wisconsin Alumni Research Foundation, priority 2007, published 2010)", "key": {"[1]": {"conditions": "dogs; cited from earlier work"}, "[2]": {"assay": "17-AAG loading in PEG-PLA micelles prepared by dialysis (HPLC)", "format": "physicochemical", "experimental": "Preparation and characterization of drug loaded PEG-PLA micelles. […] For example, 5 mg of 17-AAG and 45 mg of PEG-PLA (10:90 w/w) were dissolved in 10 mL DMAc. The resulting solution was dialyzed against H2O in 3500 MWCO tubing (SpectraPor). Resulting micelles were centrifuged at 5000 g's for 10 min to precipitate unincorporated drug. […] Micelle solutions were concentrated by rotary evaporation at reduced pressure at room temperature, followed by centrification (5000 g's for 10 minutes).\nThe loading experiments were investigated at 10% w/w to evaluate the suitability of PEG-PLA micelles for solubilizing 17-AAG."}, "[3]": {"test_system": "PC-3 human prostate cells", "assay": "In vitro cytotoxicity, resazurin dye", "format": "cell-based", "conditions": "Prostate cell, 72 hours", "experimental": "(§1) In vitro cytotoxicity studies. […] Cell lines were plated in 96-well plates at an initial density of 3000 cells per well in 90 μL of appropriate media, and maintained at 37° C. under a 5% CO2 atmosphere. […] Drug-loaded micelles or micelles alone were formulated in MilliQ water (following dialysis of DMSO to form the micelles). It was not necessary to dilute the samples further before addition to wells. […] Following, the metabolic rate of cells was determined by using resazurin dye (Sigma-Aldrich)."}, "[4]": {"test_system": "MCF-7 human breast cancer cells", "assay": "In vitro cytotoxicity, resazurin dye", "format": "cell-based", "conditions": "MCF7, 72 hours", "experimental": "as §1"}, "[5]": {"conditions": "cited from earlier work"}, "MCF-7": {"test_system": "MCF-7", "conditions": "reported by the National Cancer Institute; cited from earlier work"}}, "note": "Like-named read-outs stand apart in the source and are kept apart here.", "data": [{"smiles": "C=CCNC1=C2C[C@@H](C)C[C@H](OC)[C@H](O)[C@@H](C)/C=C(\\C)[C@H](OC(N)=O)[C@@H](OC)/C=C\\C=C(/C)C(=O)NC(=CC1=O)C2=O", "note": "[17-AAG, 17-allylamino-17-demethoxygeldanamycin]", "values": [{"measurement": "maximum tolerated dose", "setting": "[1]", "value": "100-200 mg/m^2/day"}, {"measurement": "mol 17-AAG:mol PEG-PLA", "setting": "[2]; 0.3 mM PEG-PLA solution", "value": "0.73±0.09"}, {"measurement": "17-AAG solubilized", "setting": "[2]; 0.3 mM PEG-PLA solution, initial 17-AAG 0.45 mg/mL (11.4% w/w)", "value": "0.083 ± 0.012", "unit": "mg/mL"}, {"measurement": "17-AAG loaded", "setting": "[2]; 0.3 mM PEG-PLA, weight 17-AAG versus total weight of carrier", "value": "0.024 ± 0.003", "unit": "mg/mg"}, {"measurement": "17-AAG loading efficiency", "setting": "[2]; PEG-PLA (12:6 kDa) micelles", "value": "19±3", "unit": "% w/w"}, {"measurement": "drug loading", "setting": "[2]; PEG-PLA (12:12 kDa) micelles, with and without alpha-tocopherol", "value": "< 0.5", "unit": "mg/mL"}, {"measurement": "time after which drug precipitated out of solution", "setting": "[2]; micelles incorporating 1:1 alpha-tocopherol to drug, even at 4° C.", "value": "4 to 5", "unit": "h"}, {"measurement": "Efficiency", "setting": "[2]; total drug solubilized versus initial drug concentration", "value": "19 ± 3", "unit": "% loaded"}, {"measurement": "IC50", "setting": "[3]; n = 6, read-out: PC-3 IC50", "value": "74 ± 14", "unit": "nM"}, {"measurement": "IC50", "setting": "[3]; read-out: IC50 in PC-3", "value": "74 ± 14", "unit": "nM"}, {"measurement": "IC50", "setting": "[4]; n = 6, read-out: MCF-7 IC50", "value": "22 ± 14", "unit": "nM"}, {"measurement": "IC50", "setting": "[4]; read-out: IC50 in MCF-7", "value": "22 ± 14", "unit": "nM"}, {"measurement": "solubility of 17-AAG", "setting": "[5]; according to the National Cancer Institute", "value": "~10", "unit": "µg/mL"}, {"measurement": "aqueous solubility", "setting": "[5]", "value": "about 0.1 mg/mL"}, {"measurement": "water solubility", "setting": "[5]; neutral pH", "value": "about 0.1 mg/mL"}, {"measurement": "IC50", "setting": "MCF-7", "value": 12.6, "unit": "nM"}]}, {"smiles": "CO[C@H]1/C=C\\C=C(/C)C(=O)NC2=CC(=O)C(NCCN(C)C)=C(C[C@@H](C)C[C@H](OC)[C@H](O)[C@@H](C)/C=C(\\C)[C@@H]1OC(N)=O)C2=O", "note": "[17-DMAG, 17-dimethylamino-ethylamino-17-demethoxygeldanamycin]", "values": [{"measurement": "maximum tolerated dose", "setting": "[1]", "value": 8, "unit": "mg/m^2/day"}]}]}
